Results taken from US7972793B2, “Methods and compositions for the treatment of psychotic disorders through the identification of the SULT4A1-1 haplotype” (Suregene, LLC, priority 2009, dated 2011).
Where two headings read alike, the source gives them in different places. Marks after values point to notes of the source that are not given here.

Legend:
[1] = test system: CATIE African American schizophrenia patients; experiment: CATIE drug response: change in total PANSS (LOCF), segmented by SULT4A1-1 status, African Americans; format: in vivo, human
Experimental: The design of the CATIE study has been described in detail by others (Lieberman et al., 2005; Stroup et al., 2003). […] A total of 738 subjects consented to provide DNA for genetic study. […] Retrospective genetic analyses, judged to be exempt from human studies requirements by an IRB, were conducted in the current study. All tested patients were studied using well established clinical endpoints comparing baseline, intermediate, and last observation carried forward (LOCF) for the PANSS scores using CATIE data. […] To remove time on drug as a variable for the CATIE trial, analysis was limited to only those patients who were randomized to a different drug following the initial washout period (drug switchers).

[2] = test system: CATIE Caucasian schizophrenia patients; experiment: Time to discontinuation for all causes in the CATIE study; format: in vivo, human
Text: The primary endpoint for the CATIE study was time to discontinuation for all causes (Lieberman et al., 2005). Thus the inventors evaluated the effect of SULT41-1 status on this important parameter.

[3] = test system: CATIE Caucasian subjects; experiment: Rate of hospitalization due to exacerbation of psychosis in CATIE by SULT4A1-1 status; format: in vivo, human; details: CATIE Phases 1, 2 and/or 3
Text: For this analysis, the inventors assigned a dichotomous value (positive or negative) for hospitalization status to subjects in each phase of the trial based on only the first hospitalization event for a given patient in that phase.

[4] = test system: CATIE patients; experiment: Kaplan-Meier survival (no hospitalization event) analysis, SULT4A1-1 negative vs positive; format: in vivo, human; details: FIG. 8
Experimental: A Kaplan-Meier survival analysis was performed to determine whether there was a difference between the survival (hospitalization) rates for the SULT4A1-1 negative and SULT4A1-1 positive patient populations treated with each of the atypical antipsychotics. Survival plots model the fraction of the population that survived (i.e., no hospitalization event) as a function of time.

[5] = test system: CATIE Phase I non-responders; details: CATIE Phase II, LOCF; for Responders (number): decrease PANSS ≧ 20%
[6] = test system: patients, populations not segmented by SULT4A1-1 status; details: meta-analysis, Leucht et al. (2009); negative = greater reduction in PANSS; cited from earlier work
[7] = test system: patients, unsegmented populations; details: first generation antipsychotics; Davis et al. (2003); cited from earlier work
[8] = test system: patients, unsegmented populations; details: Meta-analysis, Leucht et al. (2009); cited from earlier work
[9] = test system: CATIE Caucasian schizophrenia patients; experiment: CATIE Phase 1 drug response: change in total PANSS (LOCF), drug switchers, segmented by SULT4A1-1 status; format: in vivo, human; details: for ≦−20% (number of individuals with this percent change in total PANSS; responders) / ≧−20% (number of individuals with this percent change in total PANSS; non-responders): CATIE Caucasians, LOCF
Text: There are several different metrics for quantifying response in clinical trials of antipsychotic medications. The most commonly used psychometric instrument is the Positive and Negative Syndrome Scale (PANSS), a 30-item semi-quantitative instrument scored by clinical professionals (Kay et al., 1987). The greater the decrease in PANSS score, the better the clinical response. The most direct measure of clinical response is absolute change in PANSS score. In addition to absolute change, the improvement is often reported as a percentage change from baseline PANSS score.
A decrease of at least 20% in total PANSS is one commonly used threshold for response (Leucht et al., 2009).
The design of the CATIE study has been described in detail by others (Lieberman et al., 2005; Stroup et al., 2003). […] A total of 738 subjects consented to provide DNA for genetic study. […] Retrospective genetic analyses, judged to be exempt from human studies requirements by an IRB, were conducted in the current study.
All tested patients were studied using well established clinical endpoints comparing baseline, intermediate, and last observation carried forward (LOCF) for the PANSS scores using CATIE data. LOCF analysis is a commonly used clinical endpoint for clinical trials for neuropsychiatric drugs, with changes in PANSS scores of between negative 20% and negative 30% used as typical endpoints to indicate clinically significant response (Leucht et al., 2009). To remove time on drug as a variable for the CATIE trial, analysis was limited to only those patients who were randomized to a different drug following the initial washout period (drug switchers).
As mentioned previously, the mean change in absolute or percent PANSS provides an important measure of efficacy in patients undergoing antipsychotic treatments. Indeed, many pivotal trials in the psychosis field used absolute and/or percentage change in PANSS Score as the primary endpoint (Leucht et al., 2009). […] Therefore, in addition to examining a categorical definition of clinically significant response, the inventors determined the impact of segmentation by SULT4A1-1 status on the quantitative measure of clinical improvement—delta PANSS.

[10] = Table 16, 20% decrease in PANSS threshold, SULT4A1-1 positive group (sign not given)

SMILES	≦−20% (number of individuals; responders) ([1]; SULT4A1-1 Negative)	≧−20% (number of individuals; non-responders) ([1]; SULT4A1-1 Negative)	≦−20% (number of individuals; responders) ([1]; SULT4A1-1 Positive)	≧−20% (number of individuals; non-responders) ([1]; SULT4A1-1 Positive)	Time to discontinuation, mean time in months ([2]; SULT4A1-1 Negative)	HOSP (number of subjects hospitalized) ([3]; SULT4A1-1 Positive)	HOSP (number of subjects hospitalized) ([3]; SULT4A1-1 negative)	HOSP (number of subjects hospitalized) ([3]; Unsegmented)	Difference between survival (no hospitalization) rates of SULT4A1-1 negative and SULT4A1-1 positive patients [4]	Effect Size vs. Placebo [6]	Effect Size vs. FGA [7]	Mean Difference in Total PANSS Score, Olanzapine vs. labelled drug [8]	also measured
Cc1nc2n(c(=O)c1CCN1CCC(c3noc4cc(F)ccc34)CC1)CCCC2 [Risperidone]	7	34	3	2	11.3 Months	4	16	20	not statistically significant	−0.59	−0.25	−1.9	Responders ([1]; SULT4A1-1 Positive, change in total PANSS ≦−20%): 60%; Time to discontinuation, mean time in months ([2]; SULT4A1-1 Positive): 8.0*** Months; HOSP (rate of hospitalization) ([3]; SULT4A1-1 Positive): (11.1%); HOSP (rate of hospitalization) ([3]; SULT4A1-1 negative): (13%); HOSP (rate of hospitalization) ([3]; Unsegmented): (12.6%); Nonresponders (number) ([5]; SULT4A1-1 Negative): 8; Responders (number) ([5]; SULT4A1-1 Negative): 4; % Responders ([5]; SULT4A1-1 Positive): 0%; Nonresponders (number) ([5]; SULT4A1-1 Positive): 1; Responders (number) ([5]; SULT4A1-1 Positive): 0
O=C1Cc2cc(CCN3CCN(c4nsc5ccccc45)CC3)c(Cl)cc2N1 [Ziprasidone]	4	22	0	3	8.2*** Months	2	11	13	not statistically significant	−0.48	−0.04	−8.3	Mean Difference in Total PANSS Score, Olanzapine vs. labelled drug ([9]; CATIE SULT4A1-1 −): −2.1; Mean Difference in Total PANSS Score, Olanzapine vs. labelled drug ([9]; CATIE unsegmented): −4.9; ≦−20% (number of individuals with this percent change in total PANSS; responders) ([9]; SULT4A1-1 Negative): 6; ≧−20% (number of individuals with this percent change in total PANSS; non-responders) ([9]; SULT4A1-1 Negative): 32; ≦−20% (number of individuals with this percent change in total PANSS; responders) ([9]; SULT4A1-1 Positive): 3; ≧−20% (number of individuals with this percent change in total PANSS; non-responders) ([9]; SULT4A1-1 Positive): 7; Non Responder (number) [9, 10]: 7; Responder (number) [9, 10]: 3
